Laboratory results reported in patent US20220323548A1 (priority 2019, published 2022).
No end group written: not given here. *: point of attachment. undeca‑saccharide = not defined here; Decanoyl = CCCCCCCCCC(=O)*

How the values were obtained:
rat islets = test: Glucose-dependent insulin secretion from rat islets, rat insulin ELISA (part I); assay type: cell-based; conditions: 28 mM glucose
Description: Specifically, the pancreas of 8-week-old SD rats (Damul Science) was extracted, and islets were isolated.

human GLP-1R [1] = molecular target: human GLP-1R (Homo sapiens, UniProt P43220); test: GLP-1 receptor luciferase reporter assay (part I, glycosylated analogs); assay type: cell-based; conditions: CV-1 cells transfected with human GLP-1R and CRE, Table 2
Protocol: Specifically, the fibroblast cell line CV-1 (1×10^4 cells/ml, Korea Cell Line Bank) was cultured on a 96-well white cell culture plate for 24 hours, and then human GLP-1R (pcDNA3.1_hGLP-1R) and cAMP response element (CRE, pcDNA3.1_hCRE) were added to perform transfection. After 24 hours, the medium was exchanged with a serum-free medium, followed by culture for 16 hours, and then each analog was treated for 6 hours. The expression level of luciferase, a reporter gene, by activated GLP-1R, was quantified by a luminometer, and the results are shown in Table 2.

human GLP-1R [2] = molecular target: human GLP-1R (human, UniProt P43220 24-463); test: cell-based or functional assay

Sequence of human GLP-1R (Homo sapiens, UniProt P43220) (P43220 24-463): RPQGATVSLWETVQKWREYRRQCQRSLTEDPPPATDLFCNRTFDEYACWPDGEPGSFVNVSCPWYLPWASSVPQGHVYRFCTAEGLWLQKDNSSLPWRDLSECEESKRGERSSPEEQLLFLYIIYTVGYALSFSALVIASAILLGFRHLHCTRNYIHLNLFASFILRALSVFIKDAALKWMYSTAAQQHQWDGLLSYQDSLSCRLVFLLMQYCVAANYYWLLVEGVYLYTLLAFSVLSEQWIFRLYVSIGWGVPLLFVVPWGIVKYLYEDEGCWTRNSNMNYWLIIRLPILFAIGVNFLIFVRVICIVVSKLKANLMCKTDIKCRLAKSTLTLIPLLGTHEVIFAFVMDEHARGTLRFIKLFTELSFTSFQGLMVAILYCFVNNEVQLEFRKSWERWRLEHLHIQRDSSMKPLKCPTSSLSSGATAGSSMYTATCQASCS

Molecule: CCCCCCCCCC(=O)NCCCC[C@H](NC(=O)[C@H](CO)NC(=O)[C@@H]1CCCN1C(=O)CNC(=O)CNC(=O)[C@H](CC(N)=O)NC(=O)[C@H](CCCCN)NC(=O)[C@H](CC(C)C)NC(=O)[C@H](Cc1c[nH]c2ccccc12)NC(=O)[C@H](CSCC(=O)N[C@@H]1O[C@H](CO)[C@@H](O[C@@H]2O[C@H](CO)[C@@H](O[C@@H]3O[C@H](CO[C@H]4O[C@H](CO)[C@@H](O)[C@H](O)[C@@H]4O[C@@H]4O[C@H](CO)[C@@H](O[C@@H]5O[C@H](CO[C@]6(C(=O)OCc7ccccc7)C[C@H](O)[C@@H](NC(C)=O)[C@H]([C@H](O)[C@H](O)CO)O6)[C@H](O)[C@H](O)[C@H]5O)[C@H](O)[C@H]4NC(C)=O)[C@@H](O)[C@H](O[C@H]4O[C@H](CO)[C@@H](O)[C@H](O)[C@@H]4O[C@@H]4O[C@H](CO)[C@@H](O[C@@H]5O[C@H](CO[C@]6(C(=O)OCc7ccccc7)C[C@H](O)[C@@H](NC(C)=O)[C@H]([C@H](O)[C@H](O)CO)O6)[C@H](O)[C@H](O)[C@H]5O)[C@H](O)[C@H]4NC(C)=O)[C@@H]3O)[C@H](O)[C@H]2NC(C)=O)[C@H](O)[C@H]1NC(C)=O)NC(=O)[C@@H](NC(=O)[C@H](Cc1ccccc1)NC(=O)[C@H](CC(C)C)NC(=O)[C@H](CCCNC(=N)N)NC(=O)[C@@H](NC(=O)[C@H](C)NC(=O)[C@H](CSCC(=O)N[C@@H]1O[C@H](CO)[C@@H](O[C@@H]2O[C@H](CO)[C@@H](O[C@@H]3O[C@H](CO[C@H]4O[C@H](CO)[C@@H](O)[C@H](O)[C@@H]4O[C@@H]4O[C@H](CO)[C@@H](O[C@@H]5O[C@H](CO[C@]6(C(=O)OCc7ccccc7)C[C@H](O)[C@@H](NC(C)=O)[C@H]([C@H](O)[C@H](O)CO)O6)[C@H](O)[C@H](O)[C@H]5O)[C@H](O)[C@H]4NC(C)=O)[C@@H](O)[C@H](O[C@H]4O[C@H](CO)[C@@H](O)[C@H](O)[C@@H]4O[C@@H]4O[C@H](CO)[C@@H](O[C@@H]5O[C@H](CO[C@]6(C(=O)OCc7ccccc7)C[C@H](O)[C@@H](NC(C)=O)[C@H]([C@H](O)[C@H](O)CO)O6)[C@H](O)[C@H](O)[C@H]5O)[C@H](O)[C@H]4NC(C)=O)[C@@H]3O)[C@H](O)[C@H]2NC(C)=O)[C@H](O)[C@H]1NC(C)=O)NC(=O)[C@H](CCC(=O)O)NC(=O)[C@H](CCC(=O)O)NC(=O)[C@H](CCSC)NC(=O)[C@H](CCC(N)=O)NC(=O)[C@H](CCCCN)NC(=O)[C@H](CO)NC(=O)[C@H](CC(C)C)NC(=O)[C@H](CC(=O)O)NC(=O)[C@H](CO)NC(=O)[C@@H](NC(=O)[C@H](Cc1ccccc1)NC(=O)[C@@H](NC(=O)CNC(=O)[C@H](CCC(=O)O)NC(=O)CNC(=O)[C@@H](N)Cc1c[nH]cn1)[C@@H](C)O)[C@@H](C)O)C(C)C)[C@@H](C)CC)C(=O)O [AGM-212(E17C-11 sugar & E24C-11 sugar)]
- Insulin secretion from rat islets (rat islets; 10 nM analog, Table 4): 6763.40 ± 32.83 pg/mL
- Insulin secretion from rat islets (rat islets; 100 nM analog, Table 4): 14650.94 ± 3305.28 pg/mL
- Emax (fold induction over basal) (human GLP-1R [1]): 9.7 ± 1.2 fold induction over basal

Molecule: CCCCCCCCCC(=O)NCCCC[C@H](NC(=O)[C@H](CO)NC(=O)[C@@H]1CCCN1C(=O)CNC(=O)CNC(=O)[C@H](CC(N)=O)NC(=O)[C@H](CCCCN)NC(=O)[C@H](CC(C)C)NC(=O)[C@H](Cc1c[nH]c2ccccc12)NC(=O)[C@H](CCC(=O)O)NC(=O)[C@@H](NC(=O)[C@H](Cc1ccccc1)NC(=O)[C@H](CC(C)C)NC(=O)[C@H](CCCNC(=N)N)NC(=O)[C@@H](NC(=O)[C@H](C)NC(=O)[C@H](CSCC(=O)N[C@@H]1O[C@H](CO)[C@@H](O[C@@H]2O[C@H](CO)[C@@H](O[C@@H]3O[C@H](CO[C@H]4O[C@H](CO)[C@@H](O)[C@H](O)[C@@H]4O[C@@H]4O[C@H](CO)[C@@H](O[C@@H]5O[C@H](CO[C@]6(C(=O)OCc7ccccc7)C[C@H](O)[C@@H](NC(C)=O)[C@H]([C@H](O)[C@H](O)CO)O6)[C@H](O)[C@H](O)[C@H]5O)[C@H](O)[C@H]4NC(C)=O)[C@@H](O)[C@H](O[C@H]4O[C@H](CO)[C@@H](O)[C@H](O)[C@@H]4O[C@@H]4O[C@H](CO)[C@@H](O[C@@H]5O[C@H](CO[C@]6(C(=O)OCc7ccccc7)C[C@H](O)[C@@H](NC(C)=O)[C@H]([C@H](O)[C@H](O)CO)O6)[C@H](O)[C@H](O)[C@H]5O)[C@H](O)[C@H]4NC(C)=O)[C@@H]3O)[C@H](O)[C@H]2NC(C)=O)[C@H](O)[C@H]1NC(C)=O)NC(=O)[C@H](CCC(=O)O)NC(=O)[C@H](CCC(=O)O)NC(=O)[C@H](CCSC)NC(=O)[C@H](CCC(N)=O)NC(=O)[C@H](CCCCN)NC(=O)[C@H](CO)NC(=O)[C@H](CC(C)C)NC(=O)[C@H](CC(=O)O)NC(=O)[C@H](CO)NC(=O)[C@@H](NC(=O)[C@H](Cc1ccccc1)NC(=O)[C@@H](NC(=O)CNC(=O)[C@H](CCC(=O)O)NC(=O)CNC(=O)[C@@H](N)Cc1c[nH]cn1)[C@@H](C)O)[C@@H](C)O)C(C)C)[C@@H](C)CC)C(=O)O [AGM-212(E17C-11 sugar)]
- Insulin secretion from rat islets (rat islets; 10 nM analog, Table 3): 7895.09 ± 2457.36 pg/mL
- Insulin secretion from rat islets (rat islets; 100 nM analog, Table 3): 9523.02 ± 2852.08 pg/mL
- Emax (fold induction over basal) (human GLP-1R [1]): 10.1 ± 1.2 fold induction over basal

B1: AGM-212(E17C-11 sugar) (peptide)
peptide: HGEGTFTSDLSKQMEEC(undeca‑saccharide)AVRLFIEWLKNGGPSK(Decanoyl)
modifications: reading uncertain
- Emax (fold induction over basal), CRE-luciferase reporter (human GLP-1R [2]): 10.1 fold induction over basal

B2: AGM-212(E17C-11 sugar & E24C-11 sugar) (peptide)
peptide: HGEGTFTSDLSKQMEEC(undeca‑saccharide)AVRLFIC(undeca‑saccharide)WLKNGGPSK(Decanoyl)
modifications: reading uncertain
- Emax (fold induction over basal), CRE-luciferase reporter (human GLP-1R [2]): 9.7 fold induction over basal

B3: AGM-212(E17C-11 sugar & N28C-11 sugar) (peptide)
peptide: HGEGTFTSDLSKQMEEC(undeca‑saccharide)AVRLFIEWLKC(undeca‑saccharide)GGPSK(Decanoyl)
modifications: reading uncertain
- Emax (fold induction over basal), CRE-luciferase reporter (human GLP-1R [2]): 9.8 fold induction over basal
